Results as given in PubChem BioAssay (NCI).
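Each compound was tested at five concentrations against cells in 96-well plates for 48 hours. TGI denotes the concentration required for complete inhibition of growth.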 Where a SMILES comes first, the peptide text is derived from it. [ ]: non-standard residue; d: D form. The star is where a group is joined. ξ: configuration not given here. ξF = NC(Cc1ccccc1)C(=O)O; Cbz = O=C(OCc1ccccc1)*

Tests used:
Assay in all cases: inhibition of tumour cell growth, NCI panel, 48 h
[1] = tested on: KM12 colon
[2] = tested on: SK-OV-3 ovarian
[3] = tested on: SNB-19 CNS
[4] = tested on: PC-3 prostate
[5] = tested on: SNB-75 CNS
[6] = tested on: NCI/ADR-RES ovarian
[7] = tested on: COLO 205 colon
[8] = tested on: HOP-62 NSCLC
[9] = tested on: OVCAR-5 ovarian
[10] = tested on: HOP-92 NSCLC
[11] = tested on: HS 578T breast
[12] = tested on: UO-31 renal
[13] = tested on: SF-268 CNS
[14] = tested on: A549 NSCLC
[15] = tested on: MCF7 breast
[16] = tested on: MDA-MB-435
[17] = tested on: A498 renal
[18] = tested on: LOX IMVI melanoma
[19] = tested on: HL-60(TB) leukemia
[20] = tested on: DU-145 prostate
[21] = tested on: NCI-H23 lung
[22] = tested on: HCT-15 colon
[23] = tested on: NCI-H460 lung
[24] = tested on: K-562 leukemia
[25] = tested on: OVCAR-8 ovarian
[26] = tested on: T-47D breast
[27] = tested on: NCI-H226 lung
[28] = tested on: HCC-2998 colon
[29] = tested on: MDA-MB-231 breast
[30] = tested on: CCRF-CEM leukemia
[31] = tested on: 786-0 renal
[32] = tested on: IGROV1 ovarian
[33] = tested on: M14 melanoma
[34] = tested on: SR leukemia
[35] = tested on: HCT-116 colon
[36] = tested on: SF-295 CNS
[37] = tested on: ACHN renal
[38] = tested on: SW-620 colon
[39] = tested on: MOLT-4 leukemia
[40] = tested on: EKVX NSCLC
[41] = tested on: RPMI-8226 leukemia
[42] = tested on: SK-MEL-5 melanoma
[43] = tested on: U251 CNS
[44] = tested on: SN12C renal
[45] = tested on: OVCAR-3 ovarian
[46] = tested on: HT29 colon
[47] = tested on: MDA-N
[48] = tested on: BT-549 breast
[49] = tested on: MALME-3M melanoma
[50] = tested on: UACC-257 melanoma
[51] = tested on: UACC-62 melanoma
[52] = tested on: SK-MEL-2 melanoma
[53] = tested on: TK-10 renal
[54] = tested on: CAKI-1 renal
[55] = tested on: SK-MEL-28 melanoma
[56] = tested on: OVCAR-4 ovarian
[57] = tested on: RXF 393 renal
[58] = tested on: SF-539 CNS
[59] = tested on: NCI-H522 lung

## CCOC(=O)CNC(=O)C(Cc1ccccc1)NC(=O)OCc1ccccc1 (centres undefined) (Cbz-[ξF]-Gly-OEt)
[1]
  TGI: > 100 µM
[2]
  TGI: > 100 µM
[3]
  TGI: > 100 µM
[4]
  TGI: > 100 µM
[5]
  TGI: > 100 µM
[6]
  TGI: > 100 µM
[7]
  TGI: > 100 µM
[8]
  TGI: > 100 µM
[9]
  TGI: > 100 µM
[10]
  TGI: > 100 µM
[11]
  TGI: > 100 µM
[12]
  TGI: > 100 µM
[13]
  TGI: > 100 µM
[14]
  TGI: > 100 µM
[15]
  TGI: > 100 µM
[16]
  TGI: > 100 µM
[17]
  TGI: > 100 µM
[18]
  TGI: > 100 µM
[19]
  TGI: > 100 µM
[20]
  TGI: > 100 µM
[21]
  TGI: > 100 µM
[22]
  TGI: > 100 µM
[23]
  TGI: > 100 µM
[24]
  TGI: > 100 µM
[25]
  TGI: > 100 µM
[26]
  TGI: > 100 µM
[27]
  TGI: > 100 µM
[28]
  TGI: > 100 µM
[29]
  TGI: > 100 µM
[30]
  TGI: > 100 µM
[31]
  TGI: > 100 µM
[32]
  TGI: > 100 µM
[33]
  TGI: > 100 µM
[34]
  TGI: > 100 µM
[35]
  TGI: > 100 µM
[36]
  TGI: > 100 µM
[37]
  TGI: > 100 µM
[38]
  TGI: > 100 µM
[39]
  TGI: > 100 µM
[40]
  TGI: > 100 µM
[41]
  TGI: > 100 µM
[42]
  TGI: > 100 µM
[43]
  TGI: > 100 µM
[44]
  TGI: > 100 µM
[45]
  TGI: > 100 µM
[46]
  TGI: > 100 µM
[47]
  TGI: > 100 µM
[48]
  TGI: > 100 µM
[49]
  TGI: > 100 µM

## C=CCC(CCC(C)=O)(C(=O)OCC)C(=O)OCC
[1]
  TGI: > 100 µM
[2]
  TGI: > 100 µM
[3]
  TGI: > 100 µM
[4]
  TGI: > 100 µM
[5]
  TGI: > 100 µM
[50]
  TGI: > 100 µM
[6]
  TGI: > 100 µM
[7]
  TGI: > 100 µM
[8]
  TGI: > 100 µM
[9]
  TGI: > 100 µM
[10]
  TGI: > 100 µM
[11]
  TGI: > 100 µM
[12]
  TGI: > 100 µM
[13]
  TGI: > 100 µM
[14]
  TGI: > 100 µM
[51]
  TGI: > 100 µM
[15]
  TGI: > 100 µM
[16]
  TGI: > 100 µM
[17]
  TGI: > 100 µM
[19]
  TGI: > 100 µM
[20]
  TGI: > 100 µM
[21]
  TGI: > 100 µM
[22]
  TGI: > 100 µM
[23]
  TGI: > 100 µM
[24]
  TGI: > 100 µM
[25]
  TGI: > 100 µM
[26]
  TGI: > 100 µM
[27]
  TGI: > 100 µM
[28]
  TGI: > 100 µM
[29]
  TGI: > 100 µM
[30]
  TGI: > 100 µM
[52]
  TGI: > 100 µM
[31]
  TGI: > 100 µM
[32]
  TGI: > 100 µM
[33]
  TGI: > 100 µM
[34]
  TGI: > 100 µM
[35]
  TGI: > 100 µM
[36]
  TGI: > 100 µM
[37]
  TGI: > 100 µM
[38]
  TGI: > 100 µM
[53]
  TGI: > 100 µM
[54]
  TGI: > 100 µM
[39]
  TGI: > 100 µM
[40]
  TGI: > 100 µM
[55]
  TGI: > 100 µM
[41]
  TGI: > 100 µM
[42]
  TGI: > 100 µM
[56]
  TGI: > 100 µM
[43]
  TGI: > 100 µM
[44]
  TGI: > 100 µM
[45]
  TGI: > 100 µM
[57]
  TGI: > 100 µM
[46]
  TGI: > 100 µM
[47]
  TGI: > 100 µM
[58]
  TGI: > 100 µM
[48]
  TGI: > 100 µM
[49]
  TGI: > 100 µM
[59]
  TGI: > 100 µM

## COC(=O)[C@H](Cc1ccccc1)NC(=O)c1ccc(CNC(=O)/C=C/c2csc(-c3ccccc3)n2)cc1
[1]
  TGI: > 100 µM
[2]
  TGI: > 65.5 µM
[3]
  TGI: 39.6 µM
[4]
  TGI: > 58.2 µM
[5]
  TGI: 42 µM
[50]
  TGI: 7.72 µM
[6]
  TGI: > 91.7 µM
[7]
  TGI: > 83.2 µM
[8]
  TGI: 52.5 µM
[9]
  TGI: > 100 µM
[10]
  TGI: 9.88 µM
[11]
  TGI: 58.1 µM
[12]
  TGI: 27.3 µM
[13]
  TGI: > 100 µM
[14]
  TGI: > 72.2 µM
[51]
  TGI: 31.1 µM
[15]
  TGI: 32 µM
[16]
  TGI: > 36.7 µM
[17]
  TGI: 34.5 µM
[18]
  TGI: > 52.8 µM
[19]
  TGI: > 100 µM
[20]
  TGI: > 74.6 µM
[21]
  TGI: > 87.4 µM
[22]
  TGI: > 60.4 µM
[23]
  TGI: 42.6 µM
[24]
  TGI: > 31.9 µM
[25]
  TGI: > 65.4 µM
[26]
  TGI: 7.12 µM
[27]
  TGI: > 100 µM
[28]
  TGI: 19.4 µM
[29]
  TGI: 57.7 µM
[30]
  TGI: > 100 µM
[52]
  TGI: 9.1 µM
[31]
  TGI: 21 µM
[32]
  TGI: > 23.2 µM
[33]
  TGI: 3.81 µM
[34]
  TGI: > 21.5 µM
[35]
  TGI: > 51.7 µM
[36]
  TGI: 25.8 µM
[37]
  TGI: 44 µM
[38]
  TGI: > 100 µM
[53]
  TGI: 45.4 µM
[54]
  TGI: > 28.7 µM
[39]
  TGI: 6.68 µM
[40]
  TGI: > 88.5 µM
[55]
  TGI: 10.9 µM
[41]
  TGI: > 100 µM
[42]
  TGI: 14.7 µM
[56]
  TGI: > 71 µM
[43]
  TGI: > 72.1 µM
[44]
  TGI: 46.2 µM
[45]
  TGI: 26.3 µM
[57]
  TGI: 26.8 µM
[46]
  TGI: 43.1 µM
[47]
  TGI: 15.5 µM
[58]
  TGI: 13 µM
[48]
  TGI: > 100 µM
[49]
  TGI: 11.8 µM
[59]
  TGI: 13.7 µM

## NCCOc1cccc(C2(N3CCCCC3)CCCCC2)c1
[1]
  TGI: > 100 µM
[2]
  TGI: > 100 µM
[3]
  TGI: > 100 µM
[4]
  TGI: > 100 µM
[5]
  TGI: > 100 µM
[50]
  TGI: 34 µM
[6]
  TGI: > 100 µM
[7]
  TGI: 26 µM
[8]
  TGI: > 100 µM
[9]
  TGI: > 100 µM
[10]
  TGI: 95.2 µM
[11]
  TGI: 38.5 µM
[12]
  TGI: 28.2 µM
[13]
  TGI: 86.7 µM
[14]
  TGI: > 100 µM
[51]
  TGI: 44.2 µM
[15]
  TGI: > 100 µM
[16]
  TGI: 33.6 µM
[17]
  TGI: 98.6 µM
[18]
  TGI: 28.9 µM
[19]
  TGI: 89.2 µM
[20]
  TGI: > 100 µM
[21]
  TGI: > 100 µM
[22]
  TGI: > 100 µM
[23]
  TGI: > 100 µM
[24]
  TGI: 35.1 µM
[25]
  TGI: > 100 µM
[26]
  TGI: > 100 µM
[27]
  TGI: > 100 µM
[28]
  TGI: 37.5 µM
[29]
  TGI: 46.3 µM
[30]
  TGI: 35.8 µM
[52]
  TGI: 52.2 µM
[31]
  TGI: 26.1 µM
[33]
  TGI: 30.2 µM
[34]
  TGI: 34.8 µM
[35]
  TGI: 34.4 µM
[36]
  TGI: 77.1 µM
[37]
  TGI: > 100 µM
[38]
  TGI: > 100 µM
[53]
  TGI: > 100 µM
[54]
  TGI: > 100 µM
[39]
  TGI: 48.7 µM
[40]
  TGI: 62.6 µM
[55]
  TGI: 35.5 µM
[41]
  TGI: 48.4 µM
[42]
  TGI: 30.1 µM
[56]
  TGI: > 100 µM
[43]
  TGI: 35.1 µM
[44]
  TGI: > 100 µM
[45]
  TGI: > 100 µM
[57]
  TGI: > 100 µM
[46]
  TGI: 41.2 µM
[47]
  TGI: 33.3 µM
[58]
  TGI: 32.3 µM
[48]
  TGI: 40 µM
[49]
  TGI: 35.1 µM
[59]
  TGI: 36.1 µM
